Test results from patent US20230391765A1, “HETEROBIFUNCTIONAL COMPOUNDS AS DEGRADERS OF ENL” (ICAHN SCHOOL OF MEDICINE AT MOUNT SINAI, priority 2020, published 2023).

Columns and labels:
[1] = system: ENL target genes; test: RT-qPCR of ENL target genes in MV4; 11 cells; type: cell-based; conditions: 11 cells, 1, 2 and 4 μM for 6, 12, 18 and 24 h
Protocol: MV4; 11 cells were treated with DMSO, or LQ076-122 at 1, 2, and 4 μM for 6, 12, 18 and 24 h. RT-qPCR analysis was performed to detect the mRNA levels of selected ENL target genes.
Total RNA was extracted using the RNeasy Plus kit (Qiagen) and reverse-transcribed using the iScript cDNA Synthesis kit (Bio-Rad). RT-qPCR was performed using the Power SYBR Green PCR Master Mix (Applied Biosystems) on the CFX96 Real-Time PCR system (Bio-Rad). Gene expressions were calculated following normalization to 18s rRNA amounts using the comparative cycle threshold (Ct) method.

[2] = biological target: T1, ENL (Homo sapiens, UniProt Q03111); test: Western blot of ENL protein levels in MV4; 11 cells; type: cell-based
T1 construct: Cells were lysed and expression of endogenous ENL was assessed by Western blot analysis; host or cells: MV4;11
T1 sequence (Q03111 1-559): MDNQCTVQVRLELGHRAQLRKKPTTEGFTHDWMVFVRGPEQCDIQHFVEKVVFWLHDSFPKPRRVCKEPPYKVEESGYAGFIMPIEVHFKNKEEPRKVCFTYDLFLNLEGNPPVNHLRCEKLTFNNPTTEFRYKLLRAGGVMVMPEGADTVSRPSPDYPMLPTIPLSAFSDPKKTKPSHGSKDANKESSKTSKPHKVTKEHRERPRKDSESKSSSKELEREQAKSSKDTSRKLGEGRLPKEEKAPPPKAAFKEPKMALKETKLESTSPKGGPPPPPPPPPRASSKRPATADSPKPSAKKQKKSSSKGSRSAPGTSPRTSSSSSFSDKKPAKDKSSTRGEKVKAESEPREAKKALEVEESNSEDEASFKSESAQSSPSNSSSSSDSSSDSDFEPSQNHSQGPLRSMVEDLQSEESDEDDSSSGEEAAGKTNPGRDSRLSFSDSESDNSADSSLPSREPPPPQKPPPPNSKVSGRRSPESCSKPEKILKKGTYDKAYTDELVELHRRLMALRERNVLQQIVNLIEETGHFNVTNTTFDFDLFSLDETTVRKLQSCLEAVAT
In short: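 MV4;11 cells treated versus DMSO at 1 and 10 μM for 24 h or 6 h, or at 0.3-30 μM for 24 h; time course at 4 μM over 12-36 h. Proteasome dependence tested with 1 μM degrader ± 1 μM MG132 for 6 h. ENL (and GAS41) levels in total lysates assessed by Western blot with GAPDH/β-actin loading controls.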

Structure (SMILES): Cc1ncsc1-c1ccc(CNC(=O)[C@@H]2C[C@@H](O)CN2C(=O)[C@@H](NC(=O)CCCCCCCCCCNC(=O)c2ccc(C(=O)Nc3ccc4[nH]c(CN5CCC[C@@H]5C)nc4c3)cc2)C(C)(C)C)cc1 [LQ076-122, N^1-(11-(((S)-1-((2S,4R)-4-hydroxy-2-((4-(4-methylthiazol-5-yl)benzyl)carbamoyl)pyrrolidin-1-yl)-3,3-dimethyl-1-oxobutan-2-yl)amino)-11-oxoundecyl)-N^4-(2-(((S)-2-methylpyrrolidin-1-yl)methyl)-1H-benzo[d]imidazol-5-yl)terephthalamide]
- ENL target gene expression (mRNA levels) [1]: reduced ENL target gene expression in a concentration- and time-dependent manner
- reduction of ENL protein levels ([2]; 11 cells, 0-8 μM for 24 h): reduced ENL protein levels in a concentration-dependent manner
- reduction of ENL protein levels, time course ([2]; 11 cells, 4 μM for 12, 16, 20, 24 and 36 h): reduced ENL protein levels in a time-dependent manner
- reduction of ENL protein levels ([2]; 11 cells, 10 μM, 24 h): effective in reducing ENL protein levels
- reduction of ENL protein level ([2]; 11 cells, 0.3, 1, 3, 10 and 30 μM for 24 h): selectively reduced the ENL protein level
- reduction of ENL protein levels ([2]; 11 cells, 0.3, 1, 3 and 10 μM for 12 and 24 h): reduced ENL protein levels in a concentration- and time-dependent manner
